In the supplement of paper PMC10307832:

What was measured:
Assay in all cases: relative viability (nuclei count vs DMSO), 5 days (fraction); higher = more cells survive
Vorinostat + Bortezomib = compound: O=C(CCCCCCC(=O)Nc1ccccc1)NO [Vorinostat] + CC(C)C[C@H](NC(=O)[C@H](Cc1ccccc1)NC(=O)c1cnccn1)B(O)O [Bortezomib] (partner 0.002 µM)
Summary of the method: (§1)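 Lung cancer cell lines were seeded in 1536-well plates and dosed by pin tool the next day, with either a single drug or a fixed anchor-drug dose combined with five library-drug doses (not always all listed) spaced in √10 steps. Five days later, one step fixed the cells and stained their nuclei (final 0.05% Triton X-100, 1% formaldehyde, 1 ug/ml Hoechst), and nuclei were counted on 4× images. Relative viability is the nuclei count in treated wells divided by the count in vehicle wells, and each value is the median of duplicate plates.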

Vorinostat + Decitabine = compound: O=C(CCCCCCC(=O)Nc1ccccc1)NO [Vorinostat] + Nc1ncn([C@H]2C[C@H](O)[C@@H](CO)O2)c(=O)n1 [Decitabine] (partner 2 µM)
Summary of the method: as §1

Vorinostat + Pemetrexed = compound: O=C(CCCCCCC(=O)Nc1ccccc1)NO [Vorinostat] + Nc1nc2[nH]cc(CCc3ccc(C(=O)N[C@@H](CCC(=O)O)C(=O)O)cc3)c2c(=O)[nH]1 [Pemetrexed] (partner 0.2 µM)
Summary of the method: as §1

Vorinostat + Pictilisib = compound: O=C(CCCCCCC(=O)Nc1ccccc1)NO [Vorinostat] + CS(=O)(=O)N1CCN(Cc2cc3nc(-c4cccc5[nH]ncc45)nc(N4CCOCC4)c3s2)CC1 [Pictilisib] (partner 1 µM)
Summary of the method: as §1

Vorinostat + Palbociclib = compound: O=C(CCCCCCC(=O)Nc1ccccc1)NO [Vorinostat] + CC(=O)c1c(C)c2cnc(Nc3ccc(N4CCNCC4)cn3)nc2n(C2CCCC2)c1=O [Palbociclib] (partner 0.5 µM)
Summary of the method: as §1

Row | Cell Line | relative viability (Vorinostat + Bortezomib; first compound 0.253 µM) | relative viability (Vorinostat + Bortezomib; first compound 0.8 µM) | relative viability (Vorinostat + Bortezomib; first compound 2.53 µM) | relative viability (Vorinostat + Bortezomib; first compound 8 µM) | relative viability (Vorinostat + Decitabine; first compound 0.253 µM) | relative viability (Vorinostat + Decitabine; first compound 0.8 µM) | relative viability (Vorinostat + Decitabine; first compound 2.53 µM) | relative viability (Vorinostat + Decitabine; first compound 8 µM) | relative viability (Vorinostat + Pemetrexed; first compound 0.253 µM) | relative viability (Vorinostat + Pemetrexed; first compound 0.8 µM) | relative viability (Vorinostat + Pemetrexed; first compound 2.53 µM) | relative viability (Vorinostat + Pemetrexed; first compound 8 µM) | relative viability (Vorinostat + Pictilisib; first compound 0.253 µM) | relative viability (Vorinostat + Pictilisib; first compound 0.8 µM) | relative viability (Vorinostat + Pictilisib; first compound 2.53 µM) | relative viability (Vorinostat + Pictilisib; first compound 8 µM) | relative viability (Vorinostat + Palbociclib; first compound 0.253 µM) | relative viability (Vorinostat + Palbociclib; first compound 0.8 µM) | relative viability (Vorinostat + Palbociclib; first compound 2.53 µM) | relative viability (Vorinostat + Palbociclib; first compound 8 µM)
1 | H3255 | 0.778 | 0.622 | 0.456 | 0.154 | 0.839 | 0.607 | 0.427 | 0.173 | 0.656 | 0.573 | 0.56 | 0.289 | 0.599 | 0.574 | 0.318 | 0.183 | 0.349 | 0.337 | 0.303 | 0.232
2 | RERF-LC-KJ | 1.2 | 1.04 | 0.423 | 0.286 | 0.79 | 0.614 | 0.184 | 0.254 | 0.472 | 0.39 | 0.333 | 0.212 | 0.562 | 0.474 | 0.182 | 0.164 | 1.09 | 0.929 | 0.333 | 0.211
3 | NCI-H647 | 1.18 | 0.609 | 0.0719 | 0.0336 | 0.356 | 0.286 | 0.137 | 0.0323 | 0.226 | 0.138 | 0.0722 | 0.0562 | 0.454 | 0.526 | 0.153 | 0.0703 | 0.453 | 0.158 | 0.0854 | 0.0249
4 | NCI-H1915 | 1.01 | 0.951 | 0.54 | 0.112 | 0.278 | 0.254 | 0.174 | 0.106 | 0.531 | 0.494 | 0.371 | 0.102 | 1.17 | 0.751 | 0.426 | 0.0969 | 0.563 | 0.436 | 0.167 | 0.0832
5 | NCI-H2087 | 0.739 | 0.608 | 0.159 | 0.115 | 0.271 | 0.207 | 0.105 | 0.051 | 0.637 | 0.617 | 0.347 | 0.132 | 1.32 | 0.634 | 0.275 | 0.133 | 0.277 | 0.107 | 0.0624 | 0.0734
6 | COR-L23 | 0.985 | 0.683 | 0.131 | 0.0488 | 0.373 | 0.301 | 0.136 | 0.0929 | 0.2 | 0.182 | 0.148 | 0.12 | 0.728 | 0.451 | 0.0944 | 0.0511 | 0.281 | 0.19 | 0.0948 | 0.0728
7 | NCI-H2126 | 1.13 | 1.13 | 0.943 | 0.371 | 0.58 | 0.533 | 0.332 | 0.19 | 0.776 | 0.666 | 0.419 | 0.208 | 0.495 | 0.42 | 0.334 | 0.221 | 0.396 | 0.367 | 0.314 | 0.194
8 | LU99A | 1.09 | 0.863 | 0.298 | 0.158 | 0.949 | 0.702 | 0.389 | 0.156 | 0.14 | 0.182 | 0.162 | 0.112 | 0.264 | 0.278 | 0.154 | 0.141 | 0.389 | 0.375 | 0.272 | 0.104
